Twelve molecules from patent publication US12617790B2, “Mitragynine analogs and uses thereof” (Memorial Sloan-Kettering Cancer Center, priority 2015, dated 2026) can be followed below.

pEC50, pIC50, pKi: −log10 of the molar value. Read-outs that look alike come from different tables or passages of the source.

Data set [1] deals with T1, MOR-1 (Mus musculus, UniProt P42866).
T1 construct: expressed in transfected cells; host or cells: CHO
The data set can be described thus: [35S]GTPγS functional assay, MOR-1 transfected cell membranes. Type of data set: biochemical. The arrangement: Emax: dose or concentration left out as unconfirmed. The settings on record: for Emax: read-out: MOR-1 Emax (%).

Data set [2] has as its system CD1 mice. The data set can be described thus: Radiant heat tail flick analgesia, sc, CD1 mice. It is filed as in vivo. To be noted: Mus musculus, 0.25 h, ED50, cumulative dose-response, tail flick 15 min after sc dose.
Data set [3] deals with CD1 mice. The data set can be described thus: Radiant heat tail flick analgesia, icv, CD1 mice. Type of data set: in vivo, mouse. The settings on record: ED50, cumulative dose-response, tail flick 15 min after icv dose.
The test system of data set [4] is mice. Briefly: Antisense oligodeoxynucleotide downregulation, tail flick antinociception. The settings on record: antisense icv days 1, 3, 5, test day 6; VM1501 1.0 mg/kg sc, VM1502 1.5 mg/kg sc. Type of data set: in vivo, mouse.
The target of data set [5] is T2, DOR-1 (Mus musculus, UniProt P32300).
T2 construct: expressed in transfected cells; host or cells: CHO
The data set can be described thus: Competition binding against 125I-IBNtxA in DOR-1/CHO membranes. To be noted: for Ki: 125I-IBNtxA (0.1 nM), CHO membranes, cloned mouse receptor, read-out: Affinity (Ki nM) DOR-1.

Data set [6] deals with CD1 mice. The data set can be described thus: Reversal of tail flick antinociception by selective opioid antagonists, CD1 mice. It is filed as in vivo, mouse. The settings on record: VM1501 1.0 mg/kg sc, VM1502 1.5 mg/kg sc.
Data set [7] relates to mice. Briefly: Gastrointestinal motility assay (charcoal meal transit). To be noted: FIG. 8D: VM1501 0.5 and 1 mg/kg, 30 min.
Data set [8] concerns 129/Sv mice. Briefly: Tail flick antinociception icv in 129/Sv mice (wild type and Exon11 knockout). Type of data set: in vivo, mouse. To be noted: 15 min.
Data set [9] deals with CD1 mice. Briefly: Respiratory depression assessment (MouseOx pulse oximeter breath rate).
Data set [10] has as its target T3, KOR-1 (Mus musculus, UniProt P33534).
T3 construct: expressed in transfected cells; host or cells: CHO
Briefly: Competition binding against 125I-IBNtxA in KOR-1/CHO membranes. The settings on record: for Ki: 125I-IBNtxA (0.1 nM), CHO membranes, cloned mouse receptor, read-out: Affinity (Ki nM) KOR-1.

The target of data set [11] is T3, KOR-1. Briefly: [35S]GTPγS functional assay, KOR-1 transfected cell membranes. It is filed as biochemical.
Data set [12] addresses T1, MOR-1. Briefly: Competition binding against 125I-IBNtxA in MOR-1/CHO membranes.
Data set [13] deals with T2, DOR-1. Briefly: [35S]GTPγS functional assay, DOR-1 transfected cell membranes. To be noted: for pIC50: antagonism of 100 nM DPDPE, read-out: DOR-1 IC50; for pEC50: agonist stimulation of [35S]GTPγS binding. Type of data set: biochemical.
Data set [14] concerns CD1 male mice. Briefly: Tolerance study, chronic twice daily dosing, tail flick. The settings on record: Mus musculus, sc, 0 h, read-out: analgesic ED50, naïve (day 0).
[15] abbreviates: FIG. 8C: VM1501 2.5 mg/kg sc (5x ED50), morphine 10 mg/kg, 50 min post-injection.
[16] abbreviates: agonist stimulation of [35S]GTPγS binding, read-out: MOR-1 EC50.
Where [17] appears, read: antagonism of 100 nM U50,488H, read-out: KOR-1 IC50.
The mark [18] stands for this setting: FIG. 14, 5x antinociceptive ED50: VM1502 3.75 mg/kg sc, VM1512 5.0 mg/kg sc, morphine 10 mg/kg.

As for `CC[C@@H]1CN2CCc3c([nH]c4cccc(OC)c34)[C@@H]2C[C@@H]1/C(=C\OC)C(=O)OC` [VM1500, (E)-Methyl-2-((2S,3S,12bS)-3-ethyl-8-methoxy-1,2,3,4,6,7,12,12b-octahydroindolo[2,3-a]quinolizin-2-yl)-3-methoxyacrylate], in [1], the Emax turned out to be 65%. This molecule also gave an ED50 in [2] of 166 mg/kg. The “Analgesia icv” value in data set [3] was found to be 42 µg.

As for `CC[C@@H]1CN2CC[C@@]3(O)C(=Nc4cccc(OC)c43)C2C[C@@H]1/C(=C\OC)C(=O)OC` (stereo partly drawn) [VM1501, (E)-methyl-2-((2S,3S,7aS)-3-ethyl-7a-hydroxy-8-methoxy-1,2,3,4,6,7,7a,12b-octahydroindolo[2,3-a]quinolizin-2-yl)-3-methoxyacrylate], the “analgesic response after antisense downregulation” value in data set [4] was “diminished in MOR-1-downregulated mice”. Also, the pKi is 7.04 in data set [5], 6.88 in data set [10] and 7.43 in [12]. This molecule showed a pEC50 in data set [1] of 7.28. The molecule further displayed an ED50 in data set [2] of 0.46 mg/kg. Moreover, the “antinociception after NTI (0.5 mg/kg sc) and norBNI (10 mg/kg sc)” value in data set [6] was “insensitive to NTI and norBNI”. Also, the “antinociception after β-FNA (40 mg/kg sc)” value in data set [6] is given as “antagonized by β-FNA”. Further, the gastrointestinal transit result in [7] is reported as “did not lower transit significantly compared with saline”. In [8] (129/Sv Exon11 knockout mice), the “ED50 antinociception icv, Exon11 knockout” value stood at 0.83 µg. Besides, the “ED50 antinociception icv, wild type” value in [8] (129/Sv wild type mice) was found to be 0.022 µg. Also, the respiratory rate result in data set [9] (setting [15]) is “did not depress respiratory rate”. Also, the pIC50 in [11] is 5.60. Further, the “Analgesia icv” value in data set [3] amounted to 0.06 µg.

For `CC[C@@H]1CN2CC[C@]3(Nc4ccccc4C3=O)C2C[C@@H]1/C(=C\OC)C(=O)OC` (stereo partly drawn) [VM1508, (E)-methyl 2-((1'S,6'S,7'S)-6′-ethyl-3-oxo-3′,5′,6′,7′,8′,8a′-hexahydro-2′H-spiro[indoline-2,1′-indolizine]-7′-yl)-3-methoxyacrylate], the Ki was 2.9 nM in data set [5] and 19 nM in data set [10]. Also, the pEC50 in [1] (setting [16]) was 8.85. The maximal effect (Emax) in [1] was 116%. In data set [2], this molecule displayed an ED50 of 0.24 mg/kg. In addition, the pIC50 in data set [13] was 6.71; in data set [11] (setting [17]), 6.60. In addition, the pKi in [12] is 9.34.

Take `CC[C@@H]1CN2CC[C@]3(Nc4cccc(C#N)c4C3=O)C2C[C@@H]1/C(=C\OC)C(=O)OC` (stereo partly drawn) [VM1509, (E)-methyl 2-((1'S,6'S,7'S)-4-cyano-6′-ethyl-3-oxo-3′,5′,6′,7′,8′,8a′-hexahydro-2′H-spiro[indoline-2,1′-indolizine]-7′-yl)-3-methoxyacrylate]: the Ki is 2.4 nM in [5] and 47 nM in [10]. The pEC50 in data set [1] (setting [16]) is 9.15. Also, the Emax in [1] stood at 122%. In data set [2], this molecule came in with an ED50 of 0.32 mg/kg. Besides, the pIC50 was 7.14 in [13] and 6.14 in [11] (setting [17]). The molecule also showed a pKi in data set [12] of 9.30.

Take `CC[C@@H]1CN2CC[C@]3(Nc4cccc(-c5ccccc5)c4C3=O)C2C[C@@H]1/C(=C\OC)C(=O)OC` (stereo partly drawn) [VM1511, (E)-methyl 2-((1'S,6'S,7'S)-6′-ethyl-3-oxo-4-phenyl-3′,5′,6′,7′,8′,8a′-hexahydro-2′H-spiro[indoline-2,1′-indolizine]-7′-yl)-3-methoxyacrylate]: the Ki in data set [5] is 0.8 nM; in data set [10] it was 51 nM. In addition, the pEC50 was 8.85 in data set [1] (setting [16]) and 9.08 in [13]. The Emax in data set [1] was 123%; in [13] (percent maximal stimulation relative to DPDPE, read-out: DOR-1 Emax (value in parentheses after EC50)) it was 89%. Also, in data set [2], the ED50 amounted to 1 mg/kg. Besides, the pIC50 in data set [11] (setting [17]) is 6.77. Further, the pKi in [12] was 9.04.

In the case of `CC[C@@H]1CN2CC[C@]3(Nc4cccc(-c5ccoc5)c4C3=O)C2C[C@@H]1/C(=C\OC)C(=O)OC` (stereo partly drawn) [VM1512, (E)-methyl 2-((1'S,6'S,7'S)-6′-ethyl-4-(furan-3-yl)-3-oxo-3′,5′,6′,7′,8′,8a′-hexahydro-2′H-spiro[indoline-2,1′-indolizine]-7′-yl)-3-methoxyacrylate], the Ki was 1.5 nM in data set [5] and 39 nM in data set [10]. For the same molecule, in data set [1] (setting [16]), the pEC50 was 8.82. In data set [2], this molecule yielded an ED50 of 1.1 mg/kg. The pIC50 was 7.41 in [13] and 6.69 in data set [11] (setting [17]). Besides, in data set [9] (setting [18]), the respiratory rate entry is listed as “showed no signs respiratory depression”. In data set [12], this molecule had a pKi of 9.03.

`CC[C@@H]1CN2CCC3(Nc4c(-c5ccoc5)ccc(OC)c4C3=O)C2C[C@@H]1/C(=C\OC)C(=O)OC` (stereo partly drawn) [VM1514, Methyl (E)-2-((6'S,7'S)-6′-ethyl-7-(furan-3-yl)-4-methoxy-3-oxo-2′,3′,6′,7′,8′,8a′-hexahydro-5′H-spiro[indoline-2,1′-indolizin]-7′-yl)-3-methoxyacrylate]: the Ki in data set [5] worked out at 40 nM; in [10], 119 nM. Besides, the pEC50 is under 6.00 in [1] (setting [16]), 6.61 in [13] and 7.40 in data set [11] (agonist stimulation of [35S]GTPγS binding). Further, the pKi in data set [12] was 7.39.

Turning to `CC[C@@H]1CN2CC[C@@]3(O)C(=Nc4ccccc43)[C@@H]2C[C@@H]1/C(=C\OC)C(=O)OC` [VM1522, Methyl (E)-2-((2S,3S,7aS,12bS)-3-ethyl-7a-hydroxy-1,2,3,4,6,7,7a,12b-octahydroindolo[2,3-a]quinolizin-2-yl)-3-methoxyacrylate], the Ki was 147 nM in data set [5] and 781 nM in data set [10]. In addition, in data set [1] (setting [16]), the pEC50 is 7.47. Also, in [1], the Emax came to 116%. In addition, in data set [3], the “Analgesia icv” value amounted to 0.1 µg. This molecule also had a pKi in data set [12] of 7.64.

In the case of `CC[C@@H]1CN2CCc3c([nH]c4cccc(O)c34)[C@@H]2C[C@@H]1/C(=C\OC)C(=O)OC` [VM1532, Methyl (E)-2-((2S,3S,12bS)-3-ethyl-8-hydroxy-1,2,3,4,6,7,12,12b-octahydroindolo[2,3-a]quinolizin-2-yl)-3-methoxyacrylate], the Ki in data set [5] was found to be 532 nM; in data set [10], 769 nM. The pEC50 in data set [1] (setting [16]) is 6.37. Also, in data set [1], the Emax is 62%. In addition, the “Analgesia icv” value in [3] was found to be 9 µg. The molecule also had a pKi in data set [12] of 6.68.

As for `CC[C@@H]1CN2CCc3c([nH]c4ccccc34)[C@@H]2C[C@@H]1/C(=C\OC)C(=O)OC` [VM1540, Methyl (E)-2-((2S,3S,12bS)-3-ethyl-1,2,3,4,6,7,12,12b-octahydroindolo[2,3-a]quinolizin-2-yl)-3-methoxyacrylate], the Emax in [1] worked out at 74%. For the same molecule, the “Analgesia icv” value in data set [3] amounted to 0.1 µg.

As for `CN1CC[C@]23c4c5ccc(O)c4O[C@H]2[C@@H](O)C=C[C@H]3[C@H]1C5` [morphine, reference compound], the ED50 amounted to 4.6 mg/kg in [2] and 2 mg/kg in data set [14]. Also, the respiratory rate result is on record as “caused respiratory depression” in data set [9] (setting [15]); “caused respiratory depression” in [9] (FIG. 12D, 2x antinociceptive ED50: VM1502 1.2 mg/kg sc, morphine 5 mg/kg); “caused respiratory depression” in [9] (FIG. 12D, 5x antinociceptive ED50: VM1502 3 mg/kg sc, morphine 10 mg/kg); “caused respiratory depression” in data set [9] (setting [18]). In addition, the “Analgesia icv” value in data set [3] came to 0.53 µg.

As for `Oc1ccc2c3c1O[C@H]1c4[nH]c5c(c4C[C@@]4(O)[C@@H](C2)N(CC2CC2)CC[C@]314)C[C@@]1(O)[C@H]2Cc3ccc(O)c4c3[C@@]1(CCN2CC1CC1)[C@H]5O4` [norBNI, norbinaltorphimine, reference compound], the inhibitory constant (Ki) in data set [10] stood at 0.23 nM. Also, in data set [11] (setting [17]), the pIC50 was 8.54.
